Assay: gradient 5% acetonitrile 3 min, to 50% in 2 min, to 85% in 15 min, held 3 min, 100 µL/min
Conditions: column: Zorbax Extend-C18 2.1 x 50 mm; eluents: water / acetonitrile, 0.1% formic acid
How it was run: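 Each retention time is based on an adduct peak selected computationally and verified by manual inspection. Measurements used HPLC–quadrupole time-of-flight mass spectrometry in positive and negative ionization mode on mixtures of ~100 pure standards. Chromatography ran on a Zorbax Extend-C18 column (2.1 × 50 mm, 1.8 μm) at 100 μL/min with water and acetonitrile, each containing 0.1% formic acid, and dead and dwell volumes of 40 μL and 900 μL.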
`CCN1C(=O)CCc2cc(NS(=O)(=O)c3ccc(C)c(F)c3)ccc21` showed an RP-LC retention time of 800 s.
With `CCOC(=O)C1CCN(C(=O)c2nc(N(CC)CC)c3c(C)cc(C)nc3n2)CC1` the RP-LC retention time was 657 s.
`Cc1ccc(-c2nc3nc4c(c(N5CCCC5)n3n2)CCC4)cc1` showed an RP-LC retention time of 909 s.
`CN1c2cc(F)ccc2C(=O)NC12CCN(C(=O)c1ccc(F)c(Cl)c1)CC2` gave an RP-LC retention time of 823 s.
Compound `CCS(=O)(=O)Nc1ccc(C2(C(=O)NCc3cccc(C)c3)CCC2)cc1` has an RP-LC retention time of 869 s.
In the case of `CCc1ccc(-c2cn3cc(C(=O)N4CCCN(C)CC4)ccc3n2)cc1`, the RP-LC retention time is reported as 570 s.
`CC1=C/C(=C2/N=C(N(C)C)SS2)C(C)=N1` showed an RP-LC retention time of 611 s.
Compound `Cn1c(C2CCN(C(=O)NCc3ccc(F)cc3)CC2)cc(=O)n2nccc12` has an RP-LC retention time of 644 s.
Compound `CC(=O)c1cccc(C(=O)N2CCC3(CC2)NC(=O)N(Cc2cccc(Cl)c2)C3=O)c1` has an RP-LC retention time of 771 s.
`Cc1csc(-c2cc(S(=O)(=O)NC(C)(C)C)c(C)n2C)n1` gave an RP-LC retention time of 914 s.
Work on `CCc1cccc(C)c1NC(=O)Cn1cnc2nc(N3CCC(C(=O)NC4CC4)CC3)sc2c1=O` yielded an RP-LC retention time of 686 s.
In the case of `CCCC1(CO)CCCN1C(=O)c1ccc2[nH]ccc2c1` (stereo not given), the RP-LC retention time is reported as 745 s.
For `O=C1COc2ccc(C(=O)N3CCCCC3)cc2N1`, the RP-LC retention time was 633 s.
In the case of `CC(=O)N1CCc2nn(CC(=O)Nc3ccc(F)c(F)c3)c(=O)cc2C1`, the RP-LC retention time is reported as 644 s.
With `CCOC(=O)c1ccc(N2C=C(C(=O)OC)S(=O)(=O)c3ccccc32)cc1` the RP-LC retention time was 893 s.
With `CC(Oc1ccc(-c2cnc3ccccc3n2)cc1)C(=O)N1CCN(c2ccccn2)CC1` (stereo not given) the RP-LC retention time was 650 s.
Compound `CCOc1ccccc1N1CCN(C(=O)C2CCN(c3ncnc4c3oc3ccccc34)CC2)CC1` has an RP-LC retention time of 814 s.
`COC(=O)N(C)c1c(N)nc(-c2nn(Cc3ccccc3F)c3ncccc23)nc1N` showed an RP-LC retention time of 729 s.
`Cc1nn(C)c(=O)c2cc(S(=O)(=O)NCc3ccc(Cl)cc3)cn12` showed an RP-LC retention time of 822 s.
Compound `Cc1nc(-c2noc(-c3ccc(F)cc3)n2)cn1CC(=O)NCc1cccs1` has an RP-LC retention time of 814 s.
`CCOc1ccc(C(C)NC(=O)c2cn3c(n2)CN(CC(C)C)CC3)cc1` (stereo not given) gave an RP-LC retention time of 640 s.
`CCOc1ccccc1NS(=O)(=O)c1cn(CC(C)C)c2ncccc12` showed an RP-LC retention time of 1030 s.
For `Cc1ccc(-c2ncc(C(=O)Nc3ccc(Br)cc3)c(-c3ccncc3)n2)cc1`, the RP-LC retention time was 994 s.
For `CCc1cc(=O)n(CC(=O)Nc2ccc(F)c(F)c2)c(N2CCOCC2)n1`, the RP-LC retention time was 756 s.
In the case of `Cc1cccc(NC(=O)C2CCN(C(=O)C3Sc4ccccc4NC3=O)CC2)c1C` (stereo not given), the RP-LC retention time is reported as 753 s.
`CCCNC(=O)c1cc(-c2ccc(F)cc2)cn1C` showed an RP-LC retention time of 930 s.
In the case of `Cc1ccc(-n2cc(C(=O)N3CCSCC3)nn2)cc1C`, the RP-LC retention time is reported as 852 s.
`O=S(=O)(NCCOc1cc(N2CCCC2)ncn1)c1ccc(Cl)s1` gave an RP-LC retention time of 664 s.
Work on `CCN(CC)C(=O)c1cc2c(s1)CCC(C(=O)NCc1ccc3c(c1)OCO3)C2` (stereo not given) yielded an RP-LC retention time of 830 s.
Compound `O=C(CSc1ccc(-c2cccs2)nn1)N1CCN(c2ccccc2)CC1` has an RP-LC retention time of 848 s.
In the case of `COc1ccc(CN2C=C(C(=O)OCc3noc(-c4ccc(C)c(C)c4)n3)C(C)=NS2(=O)=O)cc1`, the RP-LC retention time is reported as 1230 s.
With `Cc1nnc(-c2coc(S(=O)(=O)N3CCN(C4CCCCC4)CC3)c2)o1` the RP-LC retention time was 615 s.
For `COc1cn2c(cc1=O)C(=O)N(CCNC(=O)c1ccc(Br)o1)CC2`, the RP-LC retention time was 556 s.
`c1ccc(C(NCCNC(c2ccccc2)c2ccccc2)c2ccccc2)cc1` gave an RP-LC retention time of 849 s.
`Cc1cc(C)c2nc(C)cc(C(=O)NC(C)C)c2c1` showed an RP-LC retention time of 650 s.
With `CCOC(=O)c1c(S(=O)(=O)N2CCC(C(=O)NCCC3=CCCCC3)CC2)c(C)n(C)c1C` the RP-LC retention time was 896 s.
In the case of `O=C(NCc1ccc(Br)cc1)C1CCCN(c2ccnc(-c3ccc(F)cc3)n2)C1` (stereo not given), the RP-LC retention time is reported as 730 s.
In the case of `COc1ccc(NC(=O)c2c[nH]c3ncccc23)c(C)c1`, the RP-LC retention time is reported as 657 s.
`O=C(Nc1ccccc1)C1CCCN(C(=O)C2Sc3ccccc3NC2=O)C1` (stereo not given) showed an RP-LC retention time of 772 s.
Compound `CC(C)NC(=O)Cc1cn2cc(Br)ccc2n1` has an RP-LC retention time of 556 s.
For `Cc1nn(-c2ccccc2)c2c1N(CC(=O)NCCC1=CCCCC1)C(=O)CS2`, the RP-LC retention time was 811 s.
Work on `O=C(NC1CCCCC1)C1CCc2sc(C(=O)N3CCCCC3)cc2C1` (stereo not given) yielded an RP-LC retention time of 891 s.
For `Cc1cc(C)c2c(SC(C)C)nc(N)nc2n1`, the RP-LC retention time was 676 s.
For `CCc1nc(-c2csc(S(=O)(=O)N3CCCC(C(=O)Nc4ccc(C#N)cc4)C3)c2)no1` (stereo not given), the RP-LC retention time was 1020 s.
`CCc1noc(-c2ccc(-n3cnc(C(=O)NC(C)CC)c3)nc2)n1` (stereo not given) showed an RP-LC retention time of 828 s.
`COC(=O)c1cc(C2CC2)nc2c1c(=O)n(Cc1ccc(C)cc1)c(=O)n2C` gave an RP-LC retention time of 1160 s.
Compound `COc1ccccc1-c1noc(Cn2nc(-c3ccc4c(c3)OCO4)ccc2=O)n1` has an RP-LC retention time of 877 s.
Work on `O=C(NCCc1ccco1)c1ccc2c(c1)NC(=O)C1CCCCN21` (stereo not given) yielded an RP-LC retention time of 739 s.
In the case of `COC(=O)c1c(NCCC(C)C)c2cccc(Cl)c2[nH]c1=O`, the RP-LC retention time is reported as 847 s.
For `CCc1cc(C(=O)N2CCCC2c2cccc(F)c2)no1` (stereo not given), the RP-LC retention time was 944 s.
With `Cc1nc(C(=O)Nc2cc(F)ccc2F)c(C)o1` the RP-LC retention time was 998 s.
`COc1cc(OC)cc(-c2nc(-c3cn(-c4ccc(C)cc4)nn3)no2)c1` gave an RP-LC retention time of 1140 s.
In the case of `Cc1ccc2oc(SCc3noc(CCC(=O)Nc4nc(-c5ccccc5)cs4)n3)nc2c1`, the RP-LC retention time is reported as 1130 s.
`Cc1ccc(NC(=O)N2C[C@@H]3C[C@H](NS(=O)(=O)c4ccccc4)[C@H]2C3)c(C)c1` gave an RP-LC retention time of 832 s.
`Cc1ccc(C2CC(=O)c3cnc(Nc4nc(C)c5cccc(C)c5n4)nc3C2)cc1` (stereo not given) showed an RP-LC retention time of 794 s.
With `COc1cc(C(=O)Nc2sc3c(c2C(N)=O)CC(C)CC3)cc(OC)c1OC` (stereo not given) the RP-LC retention time was 1020 s.
For `COc1ccc(Nc2c(-c3ccc(C)cc3)nc3cnc(Br)cn23)cc1OC`, the RP-LC retention time was 915 s.
In the case of `O=C(Cc1nnc(-c2ccccc2)o1)NC1CCCCC1`, the RP-LC retention time is reported as 787 s.
With `O=S(=O)(NC1CCCCCC1)c1cc(-c2cc(C(F)(F)F)on2)cs1` the RP-LC retention time was 1200 s.
Compound `CCCN1C(=O)COc2ccc(-c3noc(-c4cccc(Br)c4)n3)cc21` has an RP-LC retention time of 1400 s.
Compound `CC(C)n1c(=O)sc2cc(S(=O)(=O)N3CCC(C(=O)Nc4ccc(F)c(F)c4)CC3)ccc21` has an RP-LC retention time of 1020 s.
With `CC(C)n1cc(C2=CCN(S(=O)(=O)c3ccccc3)CC2)c2cccnc21` the RP-LC retention time was 702 s.
Compound `C=CCNC(=O)C(=O)N1CCN(c2ccc(OC)cc2)CC1` has an RP-LC retention time of 625 s.
Compound `Cc1noc(-c2nc(-c3ccc(Cl)c(F)c3)no2)n1` has an RP-LC retention time of 1090 s.
In the case of `CC(C)(C)NCCC(O)c1cc(C(F)(F)F)nc2c(C(F)(F)F)cccc12` (stereo not given), the RP-LC retention time is reported as 718 s.
`CC1CCN(C(=O)CSCc2nc3cccnc3n2C2CCCCC2)CC1` gave an RP-LC retention time of 960 s.
`CCc1ccc2c(c1)c(=O)c(C(=O)c1ccccc1)cn2CC(=O)Nc1cccc(Cl)c1` gave an RP-LC retention time of 892 s.
Compound `Cc1ccc(N2CCN(c3nccn4c(=O)n(CC(=O)Nc5ccc(C)c(Cl)c5)nc34)CC2)cc1` has an RP-LC retention time of 1060 s.
With `Cc1cnc(-c2ccncc2)n1CCNS(=O)(=O)c1ccc2c(c1)CCC2` the RP-LC retention time was 633 s.
In the case of `CCN(CCCNC(=O)Cn1ccc2c(=O)n(C)c(=O)n(C)c21)c1ccccc1`, the RP-LC retention time is reported as 578 s.
Compound `CN1CCCC1c1nc(C2CN(C(=O)c3ccnn3C)C2)no1` (stereo not given) has an RP-LC retention time of 543 s.
Work on `OC[C@H]1OC(n2cnc3c(N[C@H]4CCC[C@@H]4O)ncnc32)[C@H](O)[C@@H]1O` (stereo not given in full) yielded an RP-LC retention time of 551 s.
Compound `CN(C)S(=O)(=O)c1ccc(C(=O)N2Cc3nn(C(C)(C)C)c(-n4cccc4)c3C2)cc1` has an RP-LC retention time of 888 s.
For `COc1cc(NC(=O)CCc2c(-c3ccccc3)nc3ccccn23)cc(OC)c1`, the RP-LC retention time was 671 s.
Work on `CCc1nc2c(c(=O)n1CC(=O)Nc1cc(C)ccc1C)CN(Cc1ccccc1)CC2` yielded an RP-LC retention time of 679 s.
Work on `COc1ccc(CN2CCC[C@H]2c2nc(C3CCOCC3)n[nH]2)c(Cl)c1OC` yielded an RP-LC retention time of 584 s.
`Cc1c(Cl)cccc1NC(=O)CN1C(=O)NC2(CCCCC2)C1=O` showed an RP-LC retention time of 779 s.
Compound `CCC(=O)N1CCCn2nc(-c3cccnc3)cc2C1` has an RP-LC retention time of 562 s.
`CCn1c(CC2CCN(C(=O)c3nccc4ccccc34)C2)nc2cccnc21` (stereo not given) showed an RP-LC retention time of 587 s.
In the case of `Cc1cc(Nc2cc(N3CCN(C)CC3)nc(/C=C/c3ccccc3)n2)n[nH]1`, the RP-LC retention time is reported as 625 s.
With `O=S(=O)(c1ccc(-c2noc(-c3ccc(F)cc3)n2)cc1)N1CCOCC1` the RP-LC retention time was 1050 s.
For `CCN(CC)CCNC(=O)c1nc(-c2oc3c(C)cccc3c2C)no1`, the RP-LC retention time was 677 s.
Work on `O=C(Nc1ccccc1)N1CCOC(CN(CC2CCCO2)C(=O)c2ccc3c(c2)OCO3)C1` (stereo not given) yielded an RP-LC retention time of 738 s.
`O=C(Nc1ccc(F)cc1)Nc1c(-c2ccccc2)nc2ccccn12` gave an RP-LC retention time of 651 s.
`COc1ccc(-c2ccnc3nc(CCc4ccc(OC)c(OC)c4)nn23)cc1` showed an RP-LC retention time of 859 s.
With `Cn1c(=O)c2c(ncn2CC2OCCO2)n(C)c1=O` the RP-LC retention time was 606 s.
`CN1CC(=O)N(CC(=O)Nc2cccc(C#N)c2)c2ccccc2C1=O` gave an RP-LC retention time of 653 s.
In the case of `CCN1C(=O)c2cc(S(=O)(=O)Nc3ccc(Cl)cc3)ccc2Oc2cccnc21`, the RP-LC retention time is reported as 1050 s.
`Cc1ccc2c(C(=O)O)cc(NC(=O)C(C)C)cc2n1` showed an RP-LC retention time of 563 s.
Work on `O=C(Nc1cccn2c(C3CCC3)nnc12)c1ccccn1` yielded an RP-LC retention time of 781 s.

Reference: the METLIN SMRT retention time set (Domingo-Almenara et al. 2019)
